Measured values: publication PMC7821381, “Multi-Targeted Anticancer Activity of Imidazolate Phosphane Gold(I) Compounds by Inhibition of DHFR and TrxR in Breast Cancer Cells” (Frontiers in Chemistry, 2021)
Read-outs that look alike come from different tables or passages of the source.

Tests used:
[1] = test system: thioredoxin reductase (TrxR); settings: MDA-MB231, 12 h treatment, 16 μM (maximum inhibition); control 3.01 ± 0.01
Description: (§1) The assay was performed as previously reported (Galassi et al., [2012]) in 0.2 M Na, K-phosphate buffer (pH 7.4) containing 2 mM EDTA. The assay contained 0.12 mM NADPH and different amounts of cell lysate. The reaction was initiated by the addition of 3 mM 5,5′-dithiobis (2-nitrobenzoic acid) (DTNB) and the increase of absorbance was monitored at 412 nm over 5 min at 25°C.
(§2) Fig. 4S. Effects of gold(I) compounds 5 and 6 on redox enzyme thioredoxine reductase in MDA-MB231 cancer cells. The cells were incubated for 12 hours with different amount of tested compounds 5 and 6. After incubation, cells were washed twice with PBS and lysed. TrxR activity was tested by measuring NADPH-dependent reduction of DTNB (Galassi et al, 2012).

[2] = test system: thioredoxin reductase (TrxR); settings: A17, 12 h treatment, 6 μM (maximum inhibition); control 4.95 ± 0.08
Description: as §1
as §2, with “3S.” for “4S.”, “A17” for “MDA-MB231”, “Cells” for “The cells”

[3] = test system: EB-ct-DNA; assay: Competitive binding fluorescence study with EtBr (EB-ct-DNA); parameters: species or system calf; settings: competitive EtBr displacement, fluorescence quenching, pH 7.4
Text: EtBr weakly emits fluorescence in aqueous solutions (Pasternack et al., [1983]), however in presence of ct-DNA strongly emits at ~600 nm due to strong intercalation between adjacent DNA base pairs. Ethidium bromide (EB) can be employed as a probe for the spectroscopic study of the interaction between DNA and intercalating species because of a 24-fold decrease in its fluorescence when displaced from an intercalation site by the addition of a competitive binding molecule probably due to decreasing in the number of binding sites accessible to EtBr (Tong et al., [2012]). […] Fluorescence quenching spectra were recorded using a Hitachi 4,500 spectrofluorometer with an excitation wavelength of 490 nm and emission spectrum 500–700 nm. The fluorescence spectra were recorded and the fluorescence value of the decrease in emission spectra was corrected according to the relationship:
where Fc and Fm are the corrected and measured fluorescence, respectively. A1 and A2 are the absorbance of tested compounds at the exciting and emission wavelengths. For fluorescence quenching experiments, Stern-Volmer's equation was used (Equation 3): […]

[4] = biological target: T1, bovine serum albumin (BSA) (Bos taurus, UniProt P02769); assay: BSA tryptophan fluorescence quenching; type: binding; settings: Stern-Volmer constant, Tris-HCl pH 7.4, room temperature
T1 construct: purchased Sigma Aldrich
T1 sequence (P02769 25-607): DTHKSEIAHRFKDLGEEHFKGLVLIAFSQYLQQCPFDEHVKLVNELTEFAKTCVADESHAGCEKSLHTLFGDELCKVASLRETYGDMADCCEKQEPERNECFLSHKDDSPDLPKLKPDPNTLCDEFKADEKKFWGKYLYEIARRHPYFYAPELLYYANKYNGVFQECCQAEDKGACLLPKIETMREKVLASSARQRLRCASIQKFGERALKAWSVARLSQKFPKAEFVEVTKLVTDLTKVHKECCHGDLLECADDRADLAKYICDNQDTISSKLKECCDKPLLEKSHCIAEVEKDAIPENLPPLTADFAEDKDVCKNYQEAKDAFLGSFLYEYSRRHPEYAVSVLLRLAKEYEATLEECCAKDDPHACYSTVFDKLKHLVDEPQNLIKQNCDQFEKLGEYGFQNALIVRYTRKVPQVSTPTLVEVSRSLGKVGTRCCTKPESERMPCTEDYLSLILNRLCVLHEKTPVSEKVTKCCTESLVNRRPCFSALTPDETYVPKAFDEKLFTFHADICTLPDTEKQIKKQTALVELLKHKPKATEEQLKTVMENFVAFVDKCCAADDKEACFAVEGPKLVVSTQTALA
Description: The protein-binding studies were performed by tryptophan fluorescence quenching experiments using bovine serum albumin (BSA) from Sigma Aldrich prepared in 10 mM Tris-HCl buffer pH 7.4, 10 mM NaCl. The concentration was determined by measuring the absorbance at 280 nm. Assuming a molecular weight of 66,400 and a molar extinction coefficient at 280 nm of 43,824 M^−1 cm^−1. Fluorescence measurements were recorded on a Hitachi 4,500 spectrofluorometer by keeping the concentration of BSA constant (15 × 10^−6 M) while increasing compounds 5 or 6 concentrations (5 mM in DMSO) were added to protein solution at room temperatures. Protein fluorescence intensity was recorded after each successive addition of gold compound solution and equilibration (ca. 5 min). Fluorescence spectra were recorded from 300 to 450 nm at an excitation wavelength of 285 nm. The value of Stern Volmer constants of the different metal complexes to BSA was evaluated following Equation 3 and fluorescent values were corrected by Equation 2.
Protein fluorescence intensity was recorded after each successive addition of complex solution and equilibration (ca. 5 min). Fluorescence spectra were recorded from 300 to 450 nm at an excitation wavelength of 285 nm. The value of Stern Volmer constants of the different metal complexes to BSA were evaluated following the equation 3 and fluorescent values were corrected by equation 2.

Substance	Specific enzymatic activity of TrxR [1]	Specific enzymatic activity of TrxR [2]	EB-ct-DNA Ksv [3]	BSA Ksv [4]
4,5-dichloro-imidazolate-1yl-gold(I)-(triphenylphosphane) [Compound 6]	1.95 ± 0.06 (16 μM) mU/mg	4.21 ± 0.09 (6 μM) mU/mg	4.22 ± 0.34 10^3 M^−1	2.04 ± 0.71 10^4 M^−1
4,5-dicyano-imidazolate-1yl-gold(I)-(triphenylphosphane) [Compound 5]	1.59 ± 0.03 (16 μM) mU/mg	1.84 ± 0.06 (6 μM) mU/mg	1.55 ± 0.34 10^3 M^−1	2.46 ± 0.82 10^4 M^−1
